Literature values, collected in US6517814B2, “Macrocyclic chelants useful for metallopharmaceuticals” (Bristol-Myers Squibb Pharma Company, priority 2001, dated 2003).
Read-outs that look alike come from different tables or passages of the source.

O=C([O-])CN1CCN(CC(=O)[O-])CCN(CC(=O)[O-])CCN(CC(=O)[O-])CC1.[Gd+3] [[Gd(DOTA]^−]
half-life (in 0.1 M HCl): 60.2 h

O=C([O-])CN(CCN(CC(=O)[O-])CC(=O)[O-])CCN(CC(=O)[O-])CC(=O)[O-].[Gd+3] [[Gd(DTPA]^2−]
half-life (decomposes rapidly under acidic conditions): ~0.0167 h
